Measured values from ChEMBL document CHEMBL1781966, “Lead optimization of 4-imidazolylflavans: new promising aromatase inhibitors” (Eur J Med Chem, 2011).
pIC50: −log10 of the molar value.

Each molecule was assayed against T1, Aromatase (Homo sapiens, UniProt P11511) (assay: Inhibition of aromatase in human placental microsomes assessed as inhibition of aromatization of [1,2,6,7-3H] androstenedione by flow scintillation analysis).
T1 sequence (P11511 whole entry): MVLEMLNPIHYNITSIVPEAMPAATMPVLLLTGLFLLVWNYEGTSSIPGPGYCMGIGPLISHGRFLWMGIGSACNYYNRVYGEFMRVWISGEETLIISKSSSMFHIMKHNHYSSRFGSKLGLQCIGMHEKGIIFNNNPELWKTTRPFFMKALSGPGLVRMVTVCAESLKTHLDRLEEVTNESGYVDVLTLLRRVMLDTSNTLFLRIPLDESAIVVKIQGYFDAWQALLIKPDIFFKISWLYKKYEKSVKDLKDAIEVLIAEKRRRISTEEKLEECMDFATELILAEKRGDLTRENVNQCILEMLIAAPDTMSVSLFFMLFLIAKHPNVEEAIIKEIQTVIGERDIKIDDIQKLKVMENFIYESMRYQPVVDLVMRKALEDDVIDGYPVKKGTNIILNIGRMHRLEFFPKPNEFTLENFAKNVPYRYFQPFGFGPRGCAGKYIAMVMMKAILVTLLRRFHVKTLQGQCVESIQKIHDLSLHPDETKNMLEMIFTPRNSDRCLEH
Set-up: species or system Placenta
`N#Cc1ccc(C2CC(n3ccnc3)c3ccc4ccccc4c3O2)cc1` (cis isomer) showed a pIC50 of 6.27.
`Oc1ccc(C2CC(n3ccnc3)c3ccc4ccccc4c3O2)cc1` (mixture of isomers) was tested, and the pIC50 was 7.49.
Work on `N#Cc1ccc(C2CC(n3ccnc3)c3ccc4ccccc4c3O2)cc1` (mixture of isomers) yielded a pIC50 of 7.11.
For `N#Cc1ccc(C2CC(n3ccnc3)c3ccc4ccccc4c3O2)cc1` (stereo in doubt), the pIC50 was 7.47.
Molecule `c1ccc(C2CC(n3ccnc3)c3ccc4ccccc4c3O2)cc1` (trans isomer) has a pIC50 of 7.44.
